In general, EC50 refers to the midpoint of the concentration-response curve. For orientation: IC50 means the concentration that inhibits the measured activity by half. What is called AC50 is the midpoint of the concentration-response curve, whichever way the signal moves. Broadly, the CC50 is the concentration giving 50% cytotoxicity.

The text below walks through data of ChEMBL document CHEMBL1201862, “PubChem BioAssay data set” (2004).

The nature of assay [1]: viability of PTEN-deleted HCT116 cells – cell-based, HCT116 PTEN knockout, dose response (AID 1047).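 Further: HCT116 colon tumor cells with PTEN knocked out; cells exposed to compound for 60 hours before readout; potency for loss of cell viability measured by luminescence.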 It counts as functional.
Assay [2] can be described thus: Fluorescence-based cell-based high throughput dose response assay for inhibitors of the interaction of nucleotide-binding oligomerization domain containing 2 (NOD2) and the receptor-interacting serine-threonine kinase 2 (RIPK2). It counts as functional. Conditions: Homo sapiens.
The nature of assay [3]: reduced cellular PGC1a acetyl-lysine signal – cell-based, cherry-picked samples, dose response (AID 720514).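 Further: potency may reflect raised or lowered acetylation signal.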 It counts as functional.
A short description of assay [4]: viability of HCT116 lacking mutant beta-catenin – cell-based, human colon tumor, dose response (AID 1045).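 Further: HCT116 colon tumor cells with beta catenin knocked out; cells exposed to compound for 60 hours.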 In kind it is functional.
Assay [5] in a line: Luminescence Cell-Based Dose Retest to Confirm Inhibitors of Cancer Stem Cells. [Related pubchem assays (depositor defined):AID2717, AID2721]. In kind it is functional. The conditions noted are these: Homo sapiens.
Assay [6] addresses E3 ubiquitin-protein ligase Mdm2 (Homo sapiens, UniProt Q00987). The assay can be described thus: MDM2-luc reporter signal enhancers, multi-concentration potency testing, MDM2 ubiquitin-protein ligase inhibitor program, whole-cell format, luminescence detection, 384-well microplate (AID 1394).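 Further: MDM2 E3 inhibitors raise luminescence so EC50 is for signal enhancement.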 It counts as functional.
Assay [7] has as its target T1, Microphthalmia-associated transcription factor (Homo sapiens, UniProt O75030).
T1 sequence (O75030 whole entry): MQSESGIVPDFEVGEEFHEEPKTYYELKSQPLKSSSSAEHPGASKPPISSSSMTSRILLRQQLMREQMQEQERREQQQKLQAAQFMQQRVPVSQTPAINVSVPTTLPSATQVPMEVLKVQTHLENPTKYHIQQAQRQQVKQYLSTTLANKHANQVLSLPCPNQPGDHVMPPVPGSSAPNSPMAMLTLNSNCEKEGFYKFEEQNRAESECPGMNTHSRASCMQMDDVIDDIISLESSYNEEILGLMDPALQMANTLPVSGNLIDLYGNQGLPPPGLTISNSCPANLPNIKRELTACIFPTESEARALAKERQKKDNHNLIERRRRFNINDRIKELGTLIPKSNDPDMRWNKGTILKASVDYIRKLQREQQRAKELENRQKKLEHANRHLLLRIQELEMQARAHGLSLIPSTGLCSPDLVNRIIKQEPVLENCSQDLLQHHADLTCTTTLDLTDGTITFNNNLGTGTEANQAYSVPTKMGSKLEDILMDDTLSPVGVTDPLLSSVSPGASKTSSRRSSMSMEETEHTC
Briefly: reducers of TRPM1 reporter luminescence, concentration series – cell-based, SK-MEL-5, cherry-picked, set 3, MITF inhibitor project, dose response (AID 493073).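 Further: SK-MEL-5 melanoma cells with luciferase driven by the MITF target TRPM1 promoter.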 It counts as functional.

For assay [8], the target named is Kallikrein-7 (Homo sapiens, UniProt P49862). The assay can be described thus: Fluorescence Intensity-based biochemical primary high throughput dose response assay to identify activators of kallikrein-7 (K7) zymogen.
Assay [9] is described as follows: viability of BHK-21 cells – cell-based, secondary screen, cytotoxicity control for flavivirus guanylyltransferase probe project (AID 624078). In kind it is functional.
Assay [10] deals with T2, Hexokinase-1 (Homo sapiens, UniProt P19367).
T2 sequence (P19367 whole entry): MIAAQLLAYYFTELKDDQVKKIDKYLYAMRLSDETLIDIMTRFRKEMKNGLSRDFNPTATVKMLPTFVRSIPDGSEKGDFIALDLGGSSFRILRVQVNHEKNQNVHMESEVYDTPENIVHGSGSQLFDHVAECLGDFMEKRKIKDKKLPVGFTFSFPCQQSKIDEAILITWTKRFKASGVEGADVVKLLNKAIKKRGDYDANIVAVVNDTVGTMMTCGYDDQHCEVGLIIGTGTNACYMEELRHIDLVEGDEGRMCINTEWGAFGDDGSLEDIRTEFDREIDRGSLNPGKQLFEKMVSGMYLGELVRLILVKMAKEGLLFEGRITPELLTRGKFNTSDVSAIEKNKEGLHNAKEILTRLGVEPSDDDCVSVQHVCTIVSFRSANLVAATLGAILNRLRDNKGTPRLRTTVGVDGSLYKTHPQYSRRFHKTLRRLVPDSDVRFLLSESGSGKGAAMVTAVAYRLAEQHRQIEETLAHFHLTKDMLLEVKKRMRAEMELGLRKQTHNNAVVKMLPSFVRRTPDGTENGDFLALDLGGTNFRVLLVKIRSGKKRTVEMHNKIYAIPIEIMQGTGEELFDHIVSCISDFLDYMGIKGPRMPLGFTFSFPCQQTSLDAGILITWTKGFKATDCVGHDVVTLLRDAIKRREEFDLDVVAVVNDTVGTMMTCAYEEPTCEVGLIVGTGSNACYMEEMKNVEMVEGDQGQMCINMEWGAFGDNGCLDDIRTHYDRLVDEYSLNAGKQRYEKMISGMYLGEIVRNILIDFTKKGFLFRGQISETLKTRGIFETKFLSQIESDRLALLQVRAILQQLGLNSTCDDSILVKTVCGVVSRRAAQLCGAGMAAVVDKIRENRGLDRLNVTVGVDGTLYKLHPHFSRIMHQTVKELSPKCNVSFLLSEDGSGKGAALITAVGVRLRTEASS
Briefly: SAR analysis of small molecule inhibitors of hexokinase domain containing I (HKDC1) in the hexokinase 1 selectivity assay. [Related pubchem assays (depositor defined):AID493160, AID493190]. It counts as functional.

Assay [11] concerns the target T3, Hexokinase HKDC1 (Homo sapiens, UniProt Q2TB90).
T3 sequence (Q2TB90 whole entry): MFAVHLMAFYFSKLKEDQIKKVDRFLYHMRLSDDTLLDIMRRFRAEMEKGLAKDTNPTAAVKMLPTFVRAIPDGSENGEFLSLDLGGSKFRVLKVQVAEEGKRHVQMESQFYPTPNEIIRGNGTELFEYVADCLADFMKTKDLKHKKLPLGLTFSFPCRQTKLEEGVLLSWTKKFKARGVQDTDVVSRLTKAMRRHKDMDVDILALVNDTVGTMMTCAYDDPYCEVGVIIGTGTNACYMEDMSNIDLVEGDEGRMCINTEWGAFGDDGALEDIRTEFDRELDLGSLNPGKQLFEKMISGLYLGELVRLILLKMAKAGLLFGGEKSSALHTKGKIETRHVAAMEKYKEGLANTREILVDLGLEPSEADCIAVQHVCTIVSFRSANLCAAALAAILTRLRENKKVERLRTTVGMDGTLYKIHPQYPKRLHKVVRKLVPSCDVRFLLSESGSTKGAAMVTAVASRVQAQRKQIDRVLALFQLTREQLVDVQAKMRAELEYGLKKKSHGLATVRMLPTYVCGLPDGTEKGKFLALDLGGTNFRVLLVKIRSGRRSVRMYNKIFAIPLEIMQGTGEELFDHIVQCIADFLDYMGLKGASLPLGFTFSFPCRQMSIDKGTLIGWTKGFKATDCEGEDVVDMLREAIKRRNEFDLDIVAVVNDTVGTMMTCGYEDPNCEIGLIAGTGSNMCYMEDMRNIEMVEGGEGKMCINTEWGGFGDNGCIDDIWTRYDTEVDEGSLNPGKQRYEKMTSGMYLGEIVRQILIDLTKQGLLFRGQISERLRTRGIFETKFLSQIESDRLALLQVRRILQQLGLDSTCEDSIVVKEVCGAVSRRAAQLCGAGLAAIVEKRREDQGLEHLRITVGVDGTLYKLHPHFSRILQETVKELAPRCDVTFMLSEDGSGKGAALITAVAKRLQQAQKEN
The assay can be described thus: SAR analysis of small molecule inhibitors of hexokinase domain containing I (HKDC1). [Related pubchem assays (depositor defined):AID493160, AID493190]. It counts as functional.

Assay [12] addresses NAD-dependent protein deacylase sirtuin-5, mitochondrial (Homo sapiens, UniProt Q9NXA8). Briefly: sirtuin-5 deacylation blockers, concentration series – biochemical, fluorescence imaging, cherry-pick, set 5, dose response (AID 720591).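 Further: desuccinylation of succinyl peptide AMC substrate read as fluorescence after trypsin release; potency of inhibitors that lower fluorescence and may act on trypsin instead.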
Assay [13] deals with ATP-dependent translocase ABCB1 (Homo sapiens, UniProt P08183). The assay can be described thus: P-gp JC-1 efflux blockers potency – Jurkat-DNR cells, flow cytometry, follow-up, dose response (AID 489002). It counts as functional.

SMILES strings stand for the structures. Calls of active or inactive are those of the source.

Chain of E3 ubiquitin-protein ligase Mdm2 (Q00987 whole entry): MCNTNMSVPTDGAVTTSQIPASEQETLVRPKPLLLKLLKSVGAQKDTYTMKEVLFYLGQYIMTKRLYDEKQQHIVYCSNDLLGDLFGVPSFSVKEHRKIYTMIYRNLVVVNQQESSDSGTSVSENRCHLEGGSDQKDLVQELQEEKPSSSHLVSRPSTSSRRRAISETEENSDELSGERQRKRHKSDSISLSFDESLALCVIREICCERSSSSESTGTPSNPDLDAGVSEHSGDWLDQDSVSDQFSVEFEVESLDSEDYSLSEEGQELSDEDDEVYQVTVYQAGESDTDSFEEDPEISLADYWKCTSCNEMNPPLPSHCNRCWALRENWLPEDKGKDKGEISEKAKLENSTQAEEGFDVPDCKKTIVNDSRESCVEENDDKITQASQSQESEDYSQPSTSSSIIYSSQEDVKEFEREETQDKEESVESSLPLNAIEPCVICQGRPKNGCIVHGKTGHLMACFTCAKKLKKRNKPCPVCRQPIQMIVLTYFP
Chain of NAD-dependent protein deacylase sirtuin-5, mitochondrial (Q9NXA8 whole entry): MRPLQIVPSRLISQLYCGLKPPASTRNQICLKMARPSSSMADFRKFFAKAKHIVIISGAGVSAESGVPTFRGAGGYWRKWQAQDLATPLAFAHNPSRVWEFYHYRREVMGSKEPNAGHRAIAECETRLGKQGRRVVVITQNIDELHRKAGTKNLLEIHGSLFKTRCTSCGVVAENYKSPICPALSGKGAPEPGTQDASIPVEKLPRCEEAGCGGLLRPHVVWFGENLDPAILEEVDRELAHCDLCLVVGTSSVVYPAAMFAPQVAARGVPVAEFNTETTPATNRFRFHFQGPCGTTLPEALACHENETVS
Chain of Kallikrein-7 (P49862 whole entry): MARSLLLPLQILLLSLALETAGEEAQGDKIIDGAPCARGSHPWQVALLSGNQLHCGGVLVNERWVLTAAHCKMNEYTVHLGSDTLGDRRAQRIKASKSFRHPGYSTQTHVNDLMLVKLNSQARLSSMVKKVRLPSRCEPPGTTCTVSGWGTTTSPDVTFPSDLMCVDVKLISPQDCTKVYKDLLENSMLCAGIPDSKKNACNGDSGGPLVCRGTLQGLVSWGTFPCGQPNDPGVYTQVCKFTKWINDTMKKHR
Chain of ATP-dependent translocase ABCB1 (P08183 whole entry): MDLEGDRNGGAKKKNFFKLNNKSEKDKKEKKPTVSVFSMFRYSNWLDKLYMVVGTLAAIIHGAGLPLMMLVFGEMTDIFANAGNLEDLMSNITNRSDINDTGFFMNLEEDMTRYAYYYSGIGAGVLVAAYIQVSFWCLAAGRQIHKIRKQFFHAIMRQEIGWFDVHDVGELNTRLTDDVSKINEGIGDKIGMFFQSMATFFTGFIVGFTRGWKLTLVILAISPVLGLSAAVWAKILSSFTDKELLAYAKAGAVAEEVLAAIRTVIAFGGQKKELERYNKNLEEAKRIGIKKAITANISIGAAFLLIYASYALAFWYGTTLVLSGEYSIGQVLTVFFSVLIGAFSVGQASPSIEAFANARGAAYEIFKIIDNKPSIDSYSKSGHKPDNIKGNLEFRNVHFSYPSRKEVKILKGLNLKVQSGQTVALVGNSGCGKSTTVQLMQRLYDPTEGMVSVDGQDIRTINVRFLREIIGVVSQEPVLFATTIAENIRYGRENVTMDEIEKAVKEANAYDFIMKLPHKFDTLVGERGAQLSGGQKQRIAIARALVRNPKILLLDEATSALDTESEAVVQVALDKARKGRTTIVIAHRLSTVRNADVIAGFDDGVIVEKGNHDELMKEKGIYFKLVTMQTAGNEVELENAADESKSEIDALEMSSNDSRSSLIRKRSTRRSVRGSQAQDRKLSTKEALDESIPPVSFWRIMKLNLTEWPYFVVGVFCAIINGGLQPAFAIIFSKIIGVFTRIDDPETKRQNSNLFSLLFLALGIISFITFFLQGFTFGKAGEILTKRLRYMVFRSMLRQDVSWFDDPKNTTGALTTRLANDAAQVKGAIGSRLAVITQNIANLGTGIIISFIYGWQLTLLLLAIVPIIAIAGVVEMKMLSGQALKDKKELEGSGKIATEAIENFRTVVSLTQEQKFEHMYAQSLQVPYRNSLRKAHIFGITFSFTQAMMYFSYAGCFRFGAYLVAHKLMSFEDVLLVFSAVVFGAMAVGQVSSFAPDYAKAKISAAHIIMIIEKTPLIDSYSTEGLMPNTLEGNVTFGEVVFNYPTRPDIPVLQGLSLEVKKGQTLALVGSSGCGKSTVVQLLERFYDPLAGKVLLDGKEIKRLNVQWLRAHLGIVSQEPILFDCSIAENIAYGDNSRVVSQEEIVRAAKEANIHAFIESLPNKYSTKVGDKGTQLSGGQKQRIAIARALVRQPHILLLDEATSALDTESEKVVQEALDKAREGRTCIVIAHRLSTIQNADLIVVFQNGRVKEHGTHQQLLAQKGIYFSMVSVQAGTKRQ

With `O=C(Cn1ncc(Cl)c(Cl)c1=O)NCC1CCCCC1`, the results for the EC50 in [1], in [4] and in [6] were 2.58 µM (active), 1.44 µM (active) and 1.89 µM (active), respectively. Also, the IC50 in assay [2] was 3.98 µM (active). Moreover, the figures for the AC50 in assay [3], in assay [5] and in assay [7] were 3.97 µM (active), 2.83 µM (active) and 7.39 µM (active), respectively.

Take `CCNC(=O)/C(C#N)=C/c1c(N2CCN(c3ccccc3)CC2)nc2ccccn2c1=O`: the EC50 in [8] was 34.8 µM (inactive).

As to `Cc1ccc(S(=O)(=O)Nc2cc(SCC(=O)O)c(O)c3ccccc23)cc1`, the CC50 in assay [9] is 9.31 µM (active). In addition, the IC50 in assay [10] was 50.6 µM (inactive); in assay [11], 5.44 µM (active).

Regarding `O=C(O)CCNc1nc(-c2ccccc2)nc2ccccc12`, the AC50 in assay [12] is 5.41 µM (active).

The compound `CN(CCN(C)c1cc(-c2ccco2)nc2cc(-c3ccccc3)nn12)C(=O)c1ccoc1` came in with an EC50 in assay [13] of 0.0001485 µM.
